This is an account of results in publication PMC1874184 (Environmental Health Perspectives, 2005).

In data set [1] the test system is Marisa cornuarietis. Kind of data set: Exposure series I: 6-month semistatic exposure of sexually mature snails at 22°C. It counts as in vivo.
The subject of data set [2] is Marisa cornuarietis. It counts as in vivo. As to conditions: for EC10 (95% confidence intervals), clutch production / EC10 (95% confidence intervals), egg production / NOEC, clutch production / NOEC, egg production: entire duration; for Oviduct malformations under co-exposure with BPA: 5 μg BPA/L plus 3 μg ICI 182,780/L or 10 μg tamoxifen/L.
For data set [3] the following is noted: ref Heemken et al. 2001; Staples et al. 1998; cited from earlier work.
The conditions of data set [4]: cited from earlier work.
Data set [5] relates to aquatic organisms (vertebrates and invertebrates). Conditions: ref Hirano et al. 2004, Ike et al. 2002; cited from earlier work.
In data set [6] the test system is Japanese medaka (Oryzias latipes). Conditions: ref Metcalfe et al. 2001; cited from earlier work.
The test system of data set [7] is swordtails (Xiphophorus helleri). As to conditions: male fish; ref Kwak et al. 2001; cited from earlier work.
Data set [8] deals with Marisa cornuarietis. Conditions: ref Oehlmann et al. 2000; cited from earlier work.
In data set [9] the test system is freshwater sponges (Heteromyenia sp.). As to conditions: ref Hill et al. (2002); cited from earlier work.
The subject of another data set is Caenorhabditis elegans. As to conditions: ref Tominaga et al. (2003); cited from earlier work.
The subject of the next data set is C. riparius. Conditions: freshly emerged midges, 1 to 3,000 μg/L; ref Hahn et al. (2002); cited from earlier work.
The test system of another data set is Acartia tonsa. Conditions: ref Andersen et al. (1999); cited from earlier work.
Another data set relates to Potamopyrgus antipodarum. As to conditions: exposure via sediments; ref Duft et al. (2003); cited from earlier work.
In another data set the test system is vertebrate ER. Conditions: ref Bolger et al. 1998; cited from earlier work.
Data set [10] concerns the target ER-like binding site (specific [3H]-E2 binding). Put plainly: Competitive displacement of specific [3H]-E2 binding in gonad cytosolic extracts. As to conditions: for IC50: read-out: IC50, displacement of specific [3H]-E2 binding, 24 nM [3H]-E2, 18 hr incubation, n = 3; for Displacement activity / affinity for ER-like binding site (in words): 24 nM [3H]-E2.
The mark [11] stands for this setting: prespawning period (days 0–65), 22°C, based on measured BPA concentrations.
Setting [12] is: prespawning period, 22°C, measured concentrations.
[13] abbreviates: 20°C, measured BPA concentrations.
The mark [14] stands for this setting: 27°C, measured BPA concentrations.

In brackets after ≈: the same amount, converted by molar mass. Entries after “also recorded” stand apart in the source; their conditions may differ. Like-named read-outs stand apart in the source and are kept apart here.

On to `CC(C)(c1ccc(O)cc1)c1ccc(O)cc1` [BPA, 4,4′-isopropylidine diphenol], for which the “Cumulative clutch and egg production compared with SC” value in the data set on Marisa cornuarietis [1] (entire experiment, nominal BPA 0.1, 0.5 and 1 μg/L, PC 0.01 μg/L EE2, p < 0.05) is “significantly more”. Further, the “Incidence of superfemales with oviduct malformations” value in the data set with Marisa cornuarietis [1] (nominal 0.05 μg/L BPA, 22°C) was found to be 1.2%; in the data set on Marisa cornuarietis [1] (nominal 0.1 μg/L BPA, 22°C) it was 0%; in the data set with Marisa cornuarietis [1] (nominal 0.25 μg/L BPA, 22°C), 2.0%; in the data set on Marisa cornuarietis [1] (nominal 0.5 μg/L BPA, 22°C), 3.1%; with Marisa cornuarietis [1] (nominal 1 μg/L BPA, 22°C), 3.2%; in the data set on Marisa cornuarietis [2] (20°C, nominal 0.25 μg/L BPA), 4.8. Moreover, the “Incidence of superfemales with oviduct malformations” value with Marisa cornuarietis [2] (20°C, nominal 0.5 μg/L BPA) is listed as 8.0; in the data set on Marisa cornuarietis [2] (20°C, nominal 1 μg/L BPA), 14.8; in the data set on Marisa cornuarietis [2] (20°C, nominal 5 μg/L BPA) it was 11.5. The “EC10 (95% confidence intervals), clutch production” value with Marisa cornuarietis [1] (setting [11]) is recorded as 14.6 (13.8–15.4) ng/L; with Marisa cornuarietis [2] (setting [13]), 18.0 (6.20–52.4) ng/L; in the data set with Marisa cornuarietis [2] (setting [14]), 2090 (796–5,460) ng/L. The “EC10 (95% confidence intervals), egg production” value in the data set on Marisa cornuarietis [1] (setting [11]) is listed as 13.9 (12.8–15.0) ng/L; in the data set with Marisa cornuarietis [2] (setting [13]), 14.8 (6.07–36.2) ng/L; in the data set on Marisa cornuarietis [2] (setting [14]), 998 (161–6,200) ng/L. The “LOEC, clutch production” value with Marisa cornuarietis [1] (setting [12]) was 48.3 ng/L; in the data set on Marisa cornuarietis [2] (20°C, measured concentrations) it was 106 ng/L. Moreover, the “LOEC, egg production” value in the data set on Marisa cornuarietis [1] (setting [12]) was 48.3 ng/L; in the data set on Marisa cornuarietis [2] (20°C, measured concentrations), 106 ng/L; in the data set on Marisa cornuarietis [2] (27°C, measured concentrations) it was 436 ng/L. Besides, the “NOEC, clutch production” value is reported as 7.9 ng/L with Marisa cornuarietis [1] (setting [12]); under 106 ng/L with Marisa cornuarietis [2] (20°C, measured concentrations); at least 1990 ng/L in the data set with Marisa cornuarietis [2] (27°C, measured concentrations). For the same compound, the “NOEC, egg production” value in the data set on Marisa cornuarietis [1] (setting [12]) is reported as 7.9 ng/L; with Marisa cornuarietis [2] (20°C, measured concentrations), under 106 ng/L; with Marisa cornuarietis [2] (27°C, measured concentrations) it was 205 ng/L. The Imposex development entry is listed as “did not induce imposex development” with Marisa cornuarietis [1] (sexually mature snails, 22°C, ANOVA and Weir test p > 0.2); “did not induce imposex development” in the data set with Marisa cornuarietis [2] (20°C and 27°C, ANOVA and Weir test p > 0.5). In the data set on Marisa cornuarietis [2] (20°C or 27°C, with the exception of penis length at 20°C), the “Size of genital organs (penis pouch, penis sheath, penis) in males” value was “did not affect”. In addition, the “Mortality compared to SC” value in the data set with Marisa cornuarietis [2] (20°C, 0.25, 0.5, 1 and 5 μg BPA/L, χ2 test) was “increased significantly”. The “Clutch and egg production compared with SC” value in the data set with Marisa cornuarietis [2] (20°C, cumulative p < 0.01, per female p < 0.001) was “significantly more”. Besides, in the data set with Marisa cornuarietis [2] (20°C, p < 0.01), the “Penis length in males” value is “significant decrease; also recorded: concentration-dependent reduction”. In the data set with Marisa cornuarietis [2] (27°C, groups exposed solely to BPA), the “Clutch production compared with control” value is recorded as “none of the groups exposed solely to BPA produced significantly more clutches”. Moreover, in the data set on Marisa cornuarietis [2] (setting [14]), the “EC10, clutch production” value is 2.09 ng/mL (≈ 9.15 nM). The “EC10, egg production” value with Marisa cornuarietis [2] (setting [14]) is 0.998 ng/mL (≈ 4.37 nM). In the data set with Marisa cornuarietis [2] (27°C, only at nominal 1 and 5 μg/L, p < 0.05), the “Cumulative egg production compared with SC” value was “significant increase”. Also, in data set [3], the “log KOW” value is 2.20–3.82. In addition, the “half-life (degradation)” value in data set [4] (in sewage treatment plants, ref Howard 1989) was 28 days; in data set [4] (in water, ref Dorn et al. 1987) it was 2.5 to 4 days. Further, the “96-hr LC50 (median lethal concentration)” value in data set [5] was 1000 to 20000 ng/mL. In addition, the “Concentration inducing ovotestes (as low as)” value in data set [6] is 10 ng/mL. Besides, the “Concentration range inhibiting development of the sword” value in [7] is 0.2 to 20 ng/mL. Further, the “Concentration inducing superfeminization syndrome (as low as)” value in the data set on Marisa cornuarietis [8] was 1 ng/mL. Moreover, in data set [9], the “Concentration completely inhibiting germination” value was 80000 ng/mL. For the same compound, in data set [9], the “Concentration range with significant reductions in growth rates” value was 160 to 160000 ng/mL. Further, in the data set on Caenorhabditis elegans, the LC50 was over 100 µM. In addition, the “Reduction of yolk protein contents” value in the data set with C. riparius was 20–25%. Besides, in the data set on Acartia tonsa, the “Concentration with increase of egg production” value is on record as 20 μg BPA/L. The “EC10, increase of embryo numbers in the brood pouch (superfemale response)” value in the data set on Potamopyrgus antipodarum is recorded as 0.22 μg BPA/kg. The “Affinity to the vertebrate ER (in words)” value in the data set with vertebrate ER was “weak affinity”. In addition, the IC50 in data set [10] came to 24.8 µM.
As to `C[C@]12CC[C@@H]3c4ccc(O)cc4CC[C@H]3[C@@H]1CC[C@@H]2O` [E2], the IC50 in data set [10] stood at 0.753 µM.
In the case of `C[C@]12CC[C@@H]3c4ccc(O)cc4C[C@@H](CCCCCCCCC[S+]([O-])CCCC(F)(F)C(F)(F)F)[C@H]3[C@@H]1CC[C@@H]2O` (stereo partly shown) [ICI, ICI 182,780, reference compound], the “Imposex intensities compared to SC under co-exposure with BPA” value in the data set with Marisa cornuarietis [2] (5 μg BPA/L plus 3 μg ICI 182,780/L, both temperatures, Weir test p < 0.05) is “imposex intensities increased”. Further, the “Oviduct malformations under co-exposure with BPA” value in the data set on Marisa cornuarietis [2] (20°C) was “No oviduct malformations”.
For the compound `C[C@]12CC[C@H]3[C@@H](CCC4=CC(=O)CC[C@@]43C)[C@@H]1CC[C@@H]2O` [T, testosterone], the “Displacement activity / affinity for ER-like binding site (in words)” value in data set [10] was “only weak displacement activity”.
On to `CC/C(=C(\c1ccccc1)c1ccc(OCCN(C)C)cc1)c1ccccc1` [Tam, tamoxifen, reference compound], for which, in the data set on Marisa cornuarietis [2] (20°C), the “Oviduct malformations under co-exposure with BPA” value is reported as “No oviduct malformations”. Further, the “Displacement activity / affinity for ER-like binding site (in words)” value in [10] was “moderate affinity”.

In general, LC50 refers to the concentration that kills 50% of the test population. Broadly, the IC50 is the concentration that inhibits the measured activity by half.
